Experimental data from patent publication US12312359B2 (Vitae Pharmaceuticals, LLC, priority 2016, dated 2025).

Legend:
[1] = test system: human acute monocytic leukemia cell line MV-4-11; test: Assay 2: cell proliferation assay (ATP quantitation, CellTiter-Glo), MV-4-11; type: cell-based; details: Homo sapiens, MV4-11, 72 h, MV-4-11 cells
Experimental: Potencies of inhibitor compounds against cell proliferation was assessed against the human acute monocytic leukemia cell line MV-4-11 (ATCC® CRL-9591™) based on ATP quantitation. MV-4-11 cells or toxicity control HL-60 cells (ATCC® CCL-240™) were incubated in 96-well tissue culture plates (1.67×10^4 cells in 200 μL culture media containing 10% FBS per well) with or without test compound for 72 h at 37° C., 5% CO2. After incubation, each well was mixed by pipetting and 95 μL from each well was transferred to a well in 96-well black OptiPlate® plates (PerkinElmer). An equal volume of CellTiter-Glo® Luminescent Cell Viability Assay reagent (Promega) was added to each well, followed by mixing for 5 min on an orbital plate shaker. Luminescence was measured on a Wallac EnVision 2104 Multilabel Reader (PerkinElmer) to quantitate ATP.

[2] = target: T1, biotinylated wild-type menin and MLL-AF9 fusion protein (menin/MLL binding) (Homo sapiens, UniProt O00255); test: Assay 1: menin/MLL binding AlphaLISA assay, wild-type menin; details: Table 30; column head does not say wild-type or mutated menin
T1 construct: made in house; host or cells: menin: E. coli; MLL-AF9-FLAG: HEK293 cells, used as cleared lysate
T1 sequence (O00255 1-610): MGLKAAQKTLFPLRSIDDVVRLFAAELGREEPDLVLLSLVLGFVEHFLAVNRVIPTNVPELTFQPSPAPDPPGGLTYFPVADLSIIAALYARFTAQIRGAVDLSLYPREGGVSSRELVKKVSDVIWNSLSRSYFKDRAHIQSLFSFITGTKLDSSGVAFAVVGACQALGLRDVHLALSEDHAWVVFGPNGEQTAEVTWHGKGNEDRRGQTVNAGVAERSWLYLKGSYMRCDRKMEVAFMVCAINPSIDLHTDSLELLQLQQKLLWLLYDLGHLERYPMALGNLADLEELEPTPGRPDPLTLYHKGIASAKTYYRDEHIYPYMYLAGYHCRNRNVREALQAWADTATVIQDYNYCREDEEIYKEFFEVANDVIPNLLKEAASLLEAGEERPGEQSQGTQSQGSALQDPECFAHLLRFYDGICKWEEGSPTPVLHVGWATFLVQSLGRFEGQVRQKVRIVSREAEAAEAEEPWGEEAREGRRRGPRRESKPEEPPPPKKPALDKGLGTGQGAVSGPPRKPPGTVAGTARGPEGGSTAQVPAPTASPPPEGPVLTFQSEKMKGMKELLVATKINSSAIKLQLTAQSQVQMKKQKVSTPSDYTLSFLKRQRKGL
In short: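 Compound was preincubated 30 min at room temperature with biotinylated menin (5 nM) and MLL-AF9-FLAG lysate from HEK293 cells, pH 7.4 buffer with 5% DMSO and DTT. Bead-based Alpha signal after 60 min with streptavidin donor and anti-FLAG acceptor beads; four-parameter logistic fit gave IC50.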

Q: With `CCN(C(=O)c1cc(F)ccc1Oc1cncnc1N1CCC2(CCN(Cc3ccc4c(c3)[nH]c(=O)n4C)C2)C1)C(C)C` (stereo not shown) [Example 107, N-ethyl-5-fluoro-N-isopropyl-2-((4-(7-((1-methyl-2-oxo-2,3-dihydro-1H-benzo[d]imidazol-5-yl)methyl)-2,7-diazaspiro[4.4]nonan-2-yl)pyrimidin-5-yl)oxy)benzamide] as the compound, how does the EC50 [1] read?
A: < 100 nM

Q: What about the IC50 [2] of the same compound?
A: < 100 nM

Q: For `CC(C)(C)OC(=O)N[C@H]1CC[C@H](CCN2CC3(C2)CN(c2ncncc2Oc2ccc(F)cc2-c2ccc(C#N)cc2C2CC2)C3)CC1` [Example 189, tert-butyl ((1r,4r)-4-(2-(6-(5-((4′-cyano-2′-cyclopropyl-5-fluoro-[1,1′-biphenyl]-2-yl)oxy)pyrimidin-4-yl)-2,6-diazaspiro[3.3]heptan-2-yl)ethyl)cyclohexyl) carbamate], which EC50 [1] is on record?
A: 100 to 1000 nM

Q: And the IC50 [2]?
A: < 100 nM

Q: Which EC50 [1] does the source give for `CC(C)N(C)C(=O)c1cc(F)ccc1Oc1cncnc1N1CCC2(CCN(Cc3ccc4c(C#N)n[nH]c4c3)C2)C1` (stereo not shown) [Example 146, 2-((4-(7-((3-cyano-1H-indazol-6-yl)methyl)-2,7-diazaspiro[4.4]nonan-2-yl)pyrimidin-5-yl)oxy)-5-fluoro-N-isopropyl-N-methylbenzamide] here?
A: 100 to 1000 nM

Q: What about the IC50 [2] of the same compound?
A: < 100 nM

Q: How did the EC50 [1] turn out when `CC1CCCN1C(=O)c1cc(F)ccc1Oc1cncnc1N1CCC2(CCN(Cc3ccc4[nH]c(=O)[nH]c4c3)C2)C1` (stereo not shown) [Example 211, 5-((7-(5-(4-fluoro-2-(2-methylpyrrolidine-1-carbonyl)phenoxy)pyrimidin-4-yl)-2,7-diazaspiro[4.4]nonan-2-yl)methyl)-1,3-dihydro-2H-benzo [d]imidazol-2-one] was run?
A: 100 to 1000 nM

Q: And the IC50 [2]?
A: < 100 nM

Q: For `Cc1c(C#N)cccc1-c1cc(F)ccc1Oc1cncnc1N1CCC2(CCN(Cc3ccc4[nH]c(=O)[nH]c4c3)C2)C1` (stereo not shown) [Example 230, 5′-fluoro-2-methyl-2′-((4-(7-((2-oxo-2,3-dihydro-1H-benzo[d]imidazol-5-yl)methyl)-2,7-diazaspiro[4.4]nonan-2-yl)pyrimidin-5-yl)oxy)-[1,1′-biphenyl]-3-carbonitrile], which EC50 [1] is on record?
A: 100 to 1000 nM

Q: And the IC50 [2]?
A: < 100 nM

Q: Which results are given for `CCn1c(=O)[nH]c2cc(CN3CCC4(CCN(c5ncncc5Oc5ccc(F)cc5-c5ccc(C#N)cc5C5CC5)C4)C3)ccc21` (stereo not shown) [Example 191, 2-cyclopropyl-2′-((4-(7-((1-ethyl-2-oxo-2,3-dihydro-1H-benzo[d]imidazol-5-yl)methyl)-2,7-diazaspiro[4.4]nonan-2-yl)pyrimidin-5-yl)oxy)-5′-fluoro-[1,1′-biphenyl]-4-carbonitrile]?
A: EC50 [1]: < 100 nM; IC50 [2]: < 100 nM

Q: Which results are given for `CC(C)c1ncncc1-c1cc(F)ccc1Oc1cncnc1N1CC2(CN(CC3CCC4(CC3)OCCO4)C2)C1` [Example 64, 2-(1,4-dioxaspiro[4.5]decan-8-ylmethyl)-6-(5-(4-fluoro-2-(4-isopropylpyrimidin-5-yl)phenoxy)pyrimidin-4-yl)-2,6-diazaspiro[3.3]heptane]?
A: EC50 [1]: 100 to 1000 nM; IC50 [2]: < 100 nM

Q: `N#Cc1ccc(-c2cc(F)ccc2Oc2cncnc2N2CCC3(CCN(Cc4ccc5c(c4)NC(=O)C5)C3)C2)c(C2CC2)c1` (stereo not shown) [Example 196, 2-cyclopropyl-5′-fluoro-2′-((4-(7-((2-oxoindolin-6-yl)methyl)-2,7-diazaspiro[4.4]nonan-2-yl)pyrimidin-5-yl)oxy)-[1,1′-biphenyl]-4-carbonitrile] was tested. Which EC50 [1] did it give?
A: < 100 nM

Q: What about the IC50 [2] of the same compound?
A: < 100 nM

Q: For `CC(C)c1ncncc1-c1cc(F)ccc1Oc1cncnc1N1CC2(CC(NCc3ccccc3)CO2)C1` (stereo not shown) [Example 159, N-benzyl-2-(5-(4-fluoro-2-(4-isopropylpyrimidin-5-yl)phenoxy)pyrimidin-4-yl)-5-oxa-2-azaspiro[3.4]octan-7-amine], which EC50 [1] is on record?
A: 100 to 1000 nM

Q: What about the IC50 [2] of the same compound?
A: < 100 nM

Q: Which EC50 [1] does the source give for `CC(C)c1ncncc1-c1cc(F)ccc1Oc1cncnc1N1CCC2(CCN(Cc3ccc4[nH]c(=O)[nH]c4c3)C2)C1` (single isomer, unassigned) [Example 160A, 5-((7-(5-(4-fluoro-2-(4-isopropylpyrimidin-5-yl)phenoxy)pyrimidin-4-yl)-2,7-diazaspiro[4.4]nonan-2-yl)methyl)-1,3-dihydro-2H-benzo[d]imidazol-2-one] here?
A: < 100 nM

Q: And the IC50 [2]?
A: < 100 nM

Q: `CC(C)c1ncncc1-c1cc(F)ccc1Oc1cncnc1N1CCC2(CCN(Cc3ccc4[nH]c(=O)[nH]c4c3)C2)C1` (stereo not shown) [Example 160, 5-((7-(5-(4-fluoro-2-(4-isopropylpyrimidin-5-yl)phenoxy)pyrimidin-4-yl)-2,7-diazaspiro[4.4]nonan-2-yl)methyl)-1,3-dihydro-2H-benzo[d]imidazol-2-one] was tested. Which EC50 [1] did it give?
A: < 100 nM

Q: What about the IC50 [2] of the same compound?
A: < 100 nM

Q: How did the EC50 [1] turn out when `CCN(C(=O)c1cc(F)ccc1Oc1cncnc1N1CCC2(CCN(Cc3ccc4[nH]c(=O)[nH]c4c3)C2)C1)C(C)C` (single isomer, unassigned) [Example 2B, N-ethyl-5-fluoro-N-isopropyl-2-((4-(7-((2-oxo-2,3-dihydro-1H-benzo[d]imidazol-5-yl)methyl)-2,7-diazaspiro[4.4]nonan-2-yl)pyrimidin-5-yl)oxy)benzamide] was run?
A: < 100 nM

Q: What about the IC50 [2] of the same compound?
A: < 100 nM

Q: How did the EC50 [1] turn out when `CCN(C(=O)C(C)C)c1cc(F)ccc1Oc1cncnc1N1CC2(CCN(CC3CCOCC3)C2)C1` [Example 156, N-ethyl-N-(5-fluoro-2-((4-(6-((tetrahydro-2H-pyran-4-yl)methyl)-2,6-diazaspiro[3.4]octan-2-yl)pyrimidin-5-yl)oxy)phenyl)iso-butyramide] was run?
A: 100 to 1000 nM

Q: What about the IC50 [2] of the same compound?
A: < 100 nM

Q: `CC(C)N(C(=O)c1cc(F)ccc1Oc1cncnc1N1CC2(CCN(CC(C)(C)C)C2)C1)C(C)C` [Example 102, 5-fluoro-N,N-diisopropyl-2-((4-(6-neopentyl-2,6-diazaspiro[3.4]octan-2-yl)pyrimidin-5-yl)oxy)benzamide] was tested. Which EC50 [1] did it give?
A: < 100 nM

Q: What about the IC50 [2] of the same compound?
A: < 100 nM

Q: With `CCN(C(=O)C(C)C)c1cc(F)ccc1Oc1cncnc1N1CC2(CCN(CC3CCC(F)(F)CC3)C2)C1` [Example 137, N-(2-((4-(6-((4,4-difluorocyclohexyl)methyl)-2,6-diazaspiro[3.4]octan-2-yl)pyrimidin-5-yl)oxy)-5-fluorophenyl)-N-ethylisobutyramide] as the compound, how does the EC50 [1] read?
A: 100 to 1000 nM

Q: What about the IC50 [2] of the same compound?
A: < 100 nM

Q: Which EC50 [1] does the source give for `CCc1ncccc1-c1cc(F)ccc1Oc1cncnc1N1CCC2(CCN(Cc3ccc4[nH]c(=O)[nH]c4c3)C2)C1` (stereo not shown) [Example 234, 5-((7-(5-(2-(2-ethylpyridin-3-yl)-4-fluorophenoxy)pyrimidin-4-yl)-2,7-diazaspiro [4.4]nonan-2-yl)methyl)-1,3-dihydro-2H-benzo[d]imidazol-2-one] here?
A: < 100 nM

Q: What about the IC50 [2] of the same compound?
A: < 100 nM

Q: Which results are given for `CC(=O)Nc1ccc(CN2CCC3(CCN(c4ncncc4Oc4ccc(F)cc4-c4ccccc4C(C)C)C3)C2)cc1` (stereo not shown) [Example 221, N-(4-((7-(5-((5-fluoro-2′-isopropyl-[1,1′-biphenyl]-2-yl)oxy)pyrimidin-4-yl)-2,7-diazaspiro[4.4]nonan-2-yl)methyl)phenyl) acetamide]?
A: EC50 [1]: 100 to 1000 nM; IC50 [2]: < 100 nM

Q: How did the EC50 [1] turn out when `CC(C)N(C)C(=O)c1cc(F)ccc1Oc1cncnc1N1CC2(CN(CC3CCOCC3)C2)C1` [Example 225, 5-fluoro-N-isopropyl-N-methyl-2-((4-(6-((tetrahydro-2H-pyran-4-yl)methyl)-2,6-diazaspiro[3.3]heptan-2-yl)pyrimidin-5-yl)oxy)benzamide] was run?
A: 100 to 1000 nM

Q: And the IC50 [2]?
A: < 100 nM

Q: For `CCN(C(=O)C(C)C)c1cc(F)ccc1Oc1cncnc1N1CC2(CCN(CC3CCOCC3)CC2)C1` [Example 110, N-ethyl-N-(5-fluoro-2-((4-(7-((tetrahydro-2H-pyran-4-yl)methyl)-2,7-diazaspiro[3.5]nonan-2-yl)pyrimidin-5-yl)oxy)phenyl)iso-butyramide], which EC50 [1] is on record?
A: 100 to 1000 nM

Q: And the IC50 [2]?
A: < 100 nM

Q: With `CC(C)n1nccc1-c1cc(F)ccc1Oc1cncnc1N1CCC2(CCN(Cc3ccc4[nH]c(=O)[nH]c4c3)C2)C1` (single isomer, unassigned) [Example 197A, 5-((7-(5-(4-fluoro-2-(1-isopropyl-1H-pyrazol-5-yl)phenoxy)pyrimidin-4-yl)-2,7-diazaspiro[4.4]nonan-2-yl)methyl)-1,3-dihydro-2H-benzo[d]imidazol-2-one] as the compound, how does the EC50 [1] read?
A: < 100 nM

Q: And the IC50 [2]?
A: < 100 nM
